# Assay results reported in US12559471B2, “1,5-dihydro-2,4-benzodiazepine-3-one derivative and application thereof” (JIANGSU NHWA PHARMACEUTICAL CO., LTD, priority 2020, dated 2026).
# pIC50, pKi: −log10 of the molar value. Where “and” joins values, the source holds several entries; their conditions need not be identical. Equal entries are not always repeated.
# Tests used:
# hERG potassium channel = hERG potassium channel (Homo sapiens (Human), UniProt Q12809); test: In vitro hERG assay, whole-cell patch clamp in HEK-293 cells; type: cell-based; conditions: HEK-293 cells stably expressing hERG, room temperature
# Experimental: b. […] The working solutions of the test compounds were ultrasonically treated for 20 min.
# The cell suspension was gently pipetted to separate the aggregated cells.
# Under an inverted microscope, recording electrodes were controlled by a glass electrode micromanipulator (micromanipulation) to contact with the cell. […] After forming the GΩ seal, a rapid capacitance compensation was given.
# Negative control and test compounds flowed through the recording chamber in an ascending order of concentration by gravity perfusion to quickly act on the cells. During the recording, the extracellular fluid was continuously circulated by a vacuum pump. […] Each concentration was allowed to act for 5 min or until the current was stabilized. All experiments were performed at room temperature.
# [formula] Basic statistics were calculated for each concentration, including mean, standard deviation (SD), standard error (SE), and replicates (n). The dose-dependent curve was fitted with the following equation and the half maximal inhibitory concentration (IC50) of the test compounds was calculated:
# Curve fitting and calculation of IC50 were performed by GraphPad Prism 5.0 software. 5. Experimental Results
# PPI in normal rats = PPI in normal rats (dosing test, normal saline instead of DOI); type: in vivo; conditions: for PPI %, MEAN / PPI %, individual animal: normal saline
# Experimental: The test was performed according to literature and preliminary experiments, and the specific process was as follows: first an adaptation period of 5 min was given (62 dB background sound), and 5 separate startle reflex stimuli were given after the adaptation period (blockl, results not included in the analysis to reduce the initial response of the animals to a plateau level), followed by 4 different types of tests (block2) presented in a pseudo-random manner, namely: 1) startle reflex stimulus alone (pulse-alone, 120 dB, lasting 20 ms); 2) prepulse stimulus alone 13 dB above the background sound (prepulse-alone, 75 dB, lasting 20 ms); 3) prepulse stimulus in combination with startle reflex stimulus, each lasting 20 ms, with an interval of 100 ms; and 4) no stimulus in which only the background sound was given (no stimulus). Each trial was performed 5 times, with an average interval of 20 s (10-30 s) between trials.
# The response amplitude of the startle reflex stimulus alone or the prepulse stimulus in combination with startle reflex stimulus was expressed as the AVG (instrument-specific unit) value, which indirectly reflects the size of the flinching response of the rat body. Evaluation index: PPI %=(1−response amplitude of prepulse stimulus in combination with startle reflex stimulus/response amplitude of startle reflex stimulus alone)×100. The higher the value is, the greater the degree of the inhibition is. Dosing Test:
# The DOI at 0.5 mg/kg administered to animals in the above groups was changed to normal saline (NS), and other operations including administration and testing were the same as those in the intervention test.
# 5-HT2C receptor = 5-HT2C receptor (Rattus norvegicus (Rat), UniProt P08909); conditions: read-out: 5-HT2C (Ki value); rat cortex membrane, 3H-Mesulergine
# Experimental: 2) Preparation of 5-HT2C Membrane
# The rat cortex was taken out of a refrigerator at −80° C. and thawed spontaneously. The solution A was added, and the mixture was homogenized for 3-4 s at 4th gear for a total of 4 times and centrifuged at 50000 g for 25 min at 4° C. The supernatant was discarded, and the solution A was added into the precipitate. The mixture was mixed well using a vortex mixer and centrifuged at 50000 g for 25 min at 4° C. (repeated twice). The supernatant was discarded after the centrifugation, and the precipitate was stored at −80° C. for later use.
# 2) Competitive 5-HT2C Receptor Binding Assay
# Step 1: the prepared membrane was suspended in the homogenate B to obtain a 210 mg/mL membrane suspension for later use.
# Step 2: 100 μL of the membrane suspension was added into each reaction tube.
# Step 3: 100 μL of the solution B was added into a total binding tube (TB), 100 μL of Ketanserin (final concentration: 1.0×10^−5 M) was added into a non-specific binding tube (NB), and 100 μL of test compound was added into each compound binding tube (CB).
# Step 4: 10 μL of radioligand ^3H-Mesulergine was added into each reaction tube to reach a final concentration of 3 nM.
# Step 5: each reaction tube was incubated at 37° C. for 25 min. After the reaction was completed, the binding ligands were rapidly filtered under reduced pressure, wherein the Whatman test paper GF/C was washed with 0.5% PEI solution 1 h in advance. The filter membrane was fully washed with cold Tris buffer solution, taken out and put into a 4 mL scintillation disc, which was then added with 1 mL toluene scintillation solution and shaken for mixing well.
# Step 6: the scintillation disc was put into a liquid scintillation counter for counting.
# 5-HT2A receptor = 5-HT2A receptor (Homo sapiens (Human), UniProt P28223); test: Competitive 5-HT2A receptor binding assay (3H-Ketanserin, CHO-5-HT2A membrane)
# Experimental: 1) Preparation of CHO-5-HT2A Receptor Membrane
# The precipitate was collected, and the supernatant was discarded. The solution B was added into the precipitate. […] The supernatant was carefully discarded, and the solution B was added into the precipitate again. […] The precipitate obtained was stored at −80° C.
# 1) Competitive 5-HT2A Receptor Binding Assay
# Step 2: 100 μL of the membrane preparation was added into each reaction tube.
# After the filtration, the filter membrane was dried at 60° C. and added into a scintillation disc attached with a bottom membrane, which was then added with 40 μL of scintillation liquid, sealed with a top membrane, and left to stand.
# [1] = test system: DOI-induced head shaking behavior of mice; test: DOI-induced head shaking (head thrust) test in mice; type: in vivo; conditions: Mus musculus, intragastric, DOI 1 mg/kg i.p., 0-20 min, read-out: ED50 for inhibiting the DOI-induced head shaking behavior
# Experimental: 1. Head Thrust Test in Mice
# Mice were stratified according to body weight and then randomly divided into a model control group, a blank control group and drug administration groups. 1 h after the intragastric administration of a vehicle or a drug, the animals were placed in a beaker (with the diameter of 13 cm and the height of 19 cm) paved with fresh padding, and were injected with a modeling drug DOI ((±)-1-(2,5-dimethoxy-4-iodophenyl)-2-aminopropane hydrochloride or (±)-2,5-dimethoxy-4-iodoamphetamine hydrochloride) intraperitoneally at a dose of 1 mg/kg. The head shaking times of the mice during the 0-20 min after the intraperitoneal injection of DOI were recorded. The head shaking behavior is defined as a rapid rotational twitching or wet dog-like shaking of the mouse head, which is distinguished from normal grooming or exploring behavior.
# [2] = test system: MPTP+MK-801-induced Parkinson's disease mouse model; test: MPTP+MK-801-induced Parkinson's disease mouse model (anti-PDP efficacy model); type: in vivo; conditions: ip, mice, intraperitoneal, read-out: PDP efficacy (high activity) ED50
# Experimental: 1.1 Effect on MPTP+MK-801-induced Parkinson's disease mouse model (anti-PDP efficacy model)
# Animals were injected with different doses of MPTP(1-methyl-4-phenyl-1,2,3,6-tetrahydropyridine) intraperitoneally every morning for 5 consecutive days. […] Then, after an interval of 0.25 h, the mice were placed into an autonomous activity test box (a black polyethylene box with the specification of 29 cm×29 cm×30 cm) for video recording for 20 min. Video analysis was performed after the video recording to evaluate the activity of the mice.
# [3] = test system: MK-801-induced high activity behavior of mice; test: Dizocilpine (MK-801)-induced high activity test in mice; type: in vivo; conditions: Mus musculus, 1 h, intragastric, MK-801 0.3 mg/kg i.p., 60 min, read-out: ED50 for inhibiting the MK-801-induced high activity behavior
# Experimental: 2. Dizocilpine (MK-801)-Induced High Activity Test in Mice 2.1 Test Method
# Mice were stratified according to body weight and then randomly divided into a model control group, a blank control group and drug administration groups. After the administration of a test substance (or a control substance), the mice were placed into an autonomous activity test box (a black polyethylene box with the specification of 29 cm×29 cm×30 cm) for adaptation, and injected with MK-801 at 0.3 mg/kg intraperitoneally 1 h after the intragastric administration. The mice were then placed into the autonomous activity test box for video recording for 60 min. Video analysis was performed after the video recording to evaluate the activity of the mice.
# Chain of 5-HT2A receptor (P28223 whole entry): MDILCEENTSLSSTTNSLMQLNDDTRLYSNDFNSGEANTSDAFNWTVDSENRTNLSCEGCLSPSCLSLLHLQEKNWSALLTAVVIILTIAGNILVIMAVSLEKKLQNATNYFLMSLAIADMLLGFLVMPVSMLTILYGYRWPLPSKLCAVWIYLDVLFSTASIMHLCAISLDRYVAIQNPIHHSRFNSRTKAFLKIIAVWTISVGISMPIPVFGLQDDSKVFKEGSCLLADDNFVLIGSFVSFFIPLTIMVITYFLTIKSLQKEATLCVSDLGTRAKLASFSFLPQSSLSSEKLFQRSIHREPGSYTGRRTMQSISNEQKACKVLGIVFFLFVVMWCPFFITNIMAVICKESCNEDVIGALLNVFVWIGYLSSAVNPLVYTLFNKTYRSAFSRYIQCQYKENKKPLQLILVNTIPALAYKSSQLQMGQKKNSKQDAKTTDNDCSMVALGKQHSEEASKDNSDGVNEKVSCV
# Chain of 5-HT2C receptor (P08909 33-460): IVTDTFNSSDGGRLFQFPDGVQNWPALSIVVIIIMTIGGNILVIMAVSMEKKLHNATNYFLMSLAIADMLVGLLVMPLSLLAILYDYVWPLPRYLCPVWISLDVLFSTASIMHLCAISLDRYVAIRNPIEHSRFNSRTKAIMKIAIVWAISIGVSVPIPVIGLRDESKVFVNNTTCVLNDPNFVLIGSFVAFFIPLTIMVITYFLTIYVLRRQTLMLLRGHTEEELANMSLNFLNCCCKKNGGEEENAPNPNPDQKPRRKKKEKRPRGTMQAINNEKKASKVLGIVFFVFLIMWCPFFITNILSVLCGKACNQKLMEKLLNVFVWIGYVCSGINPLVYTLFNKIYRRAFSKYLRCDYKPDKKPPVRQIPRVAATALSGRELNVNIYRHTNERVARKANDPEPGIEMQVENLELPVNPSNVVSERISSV
# Chain of hERG potassium channel (Q12809 whole entry): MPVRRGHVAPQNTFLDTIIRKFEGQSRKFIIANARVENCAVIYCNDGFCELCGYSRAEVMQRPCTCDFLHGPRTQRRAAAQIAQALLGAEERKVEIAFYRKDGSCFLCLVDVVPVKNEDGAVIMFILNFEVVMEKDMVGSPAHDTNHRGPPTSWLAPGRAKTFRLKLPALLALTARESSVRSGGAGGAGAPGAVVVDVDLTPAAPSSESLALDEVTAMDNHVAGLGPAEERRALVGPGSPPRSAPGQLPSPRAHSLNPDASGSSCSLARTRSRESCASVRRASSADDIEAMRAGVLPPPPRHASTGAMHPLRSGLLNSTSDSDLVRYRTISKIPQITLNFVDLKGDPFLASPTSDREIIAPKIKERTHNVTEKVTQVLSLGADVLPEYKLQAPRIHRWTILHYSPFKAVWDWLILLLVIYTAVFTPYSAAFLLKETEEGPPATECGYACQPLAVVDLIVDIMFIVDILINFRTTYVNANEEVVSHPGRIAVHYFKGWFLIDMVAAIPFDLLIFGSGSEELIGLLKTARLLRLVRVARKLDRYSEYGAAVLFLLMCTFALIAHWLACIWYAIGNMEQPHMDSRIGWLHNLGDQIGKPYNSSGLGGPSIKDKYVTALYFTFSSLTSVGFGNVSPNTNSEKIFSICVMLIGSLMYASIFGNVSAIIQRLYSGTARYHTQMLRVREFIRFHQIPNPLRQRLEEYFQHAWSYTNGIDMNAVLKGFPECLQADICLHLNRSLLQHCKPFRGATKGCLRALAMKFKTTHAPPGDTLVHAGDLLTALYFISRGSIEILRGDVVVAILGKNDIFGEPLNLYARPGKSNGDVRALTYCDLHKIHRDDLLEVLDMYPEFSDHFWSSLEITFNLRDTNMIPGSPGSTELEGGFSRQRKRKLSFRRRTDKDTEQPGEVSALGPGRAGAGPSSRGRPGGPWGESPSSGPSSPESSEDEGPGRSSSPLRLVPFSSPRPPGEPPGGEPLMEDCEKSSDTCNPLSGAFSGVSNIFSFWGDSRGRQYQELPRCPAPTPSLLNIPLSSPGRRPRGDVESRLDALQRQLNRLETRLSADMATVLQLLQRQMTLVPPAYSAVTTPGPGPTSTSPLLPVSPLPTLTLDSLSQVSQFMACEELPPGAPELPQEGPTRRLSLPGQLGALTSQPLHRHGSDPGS
smiles,measurement,setting,value
"CC(C)COc1ccc(CN2Cc3ccc(F)cc3CN(C3CCN(C)CC3)C2=O)cc1 [NH-K-A19005, 8-fluoro-2-(1-methylpiperidin-4-yl)-4-[[4-(2-methylpropoxy)phenyl]methyl]-1,5-dihydro-2,4-benzo diazepine-3-one]",pIC50,hERG potassium channel,5.50
same,effect on PPI in normal rats,PPI in normal rats; 3 mg/kg,no significant effects were seen
same,"PPI %, MEAN",PPI in normal rats; 1 mg/kg intragastric,56.40%
same,"PPI %, individual animal",PPI in normal rats; 1 mg/kg intragastric,80.68% and 15.47% and 49.79% and 52.82% and 71.15% and 68.46%
same,"PPI %, MEAN",PPI in normal rats; 3 mg/kg intragastric,57.04%
same,"PPI %, individual animal",PPI in normal rats; 3 mg/kg intragastric,59.36% and 82.61% and 79.48% and 48.75% and 42.42% and 38.56% and 48.95% and 56.22%
same,"PPI %, MEAN",PPI in normal rats; 10 mg/kg intragastric,73.61%
same,"PPI %, individual animal",PPI in normal rats; 10 mg/kg intragastric,55.11% and 96.41% and 53.03% and 84.89% and 84.43% and 72.39% and 61.37% and 81.26%
same,pKi,5-HT2C receptor,8.47
same,pKi,"5-HT2A receptor; CHO-5-HT2A membrane, 3H-Ketanserin, read-out: 5-HT2A (Ki value)",9.37
same,2C/2A,5-HT2A receptor; ratio of 5-HT2C Ki to 5-HT2A Ki,7.907
same,ED50,[1],0.15 mg/kg
same,ED50,[2],1.85 mg/kg
same,ED50,[3],1.01 mg/kg
